Molecular target: T1, recombinant human vasopressin V2 receptors (Homo sapiens, UniProt P30518)
T1 construct: expressed in transfected cells; host or cells: CHO cell line (plasma membranes)
Assay: In vitro binding assay, [3H]-AVP displacement on plasma membranes
Conditions: membranes from tissues or CHO cell line expressing recombinant human V2 receptors; 3.5 nM [H3]-AVP; 45 minutes at 25° C.; read-out: IC50 (concentration of product that inhibits 50% of the specific binding)
Method: They were in particular tested with regard to their effects.
The affinity of the compounds of the invention for vasopressin V2 receptors was measured in in vitro binding assays, as described in J. Pharmacol. Exp. Ther., (2002), 300, pp. 1122-1130.
Plasma membranes (approximately 20 μg/ml) originating from tissues or the CHO cell line expressing recombinant human vasopressin V2 receptors are incubated for 45 minutes at 25° C. in 200 μl of TRIS-HCl buffer (50 mM; pH 8.2) containing 2 mM of MgCl2, 1 mM of EDTA, 0.1% of BSA, 1 mg/ml of bacitracin and 3.5 nM of [H^3]-AVP. The reaction is stopped by filtration and washing over GF/B filters. The nonspecific binding is determined in the presence of 1 μM of AVP. The compounds of the invention, dissolved beforehand at the concentration of 10^−2 M in DMSO, are tested in a dilution range.
For each concentration, the results are expressed as percentage inhibition of specific binding. An IC50 (concentration of product that inhibits 50% of the specific binding) is determined for each of the products using the “RS1 binding” program (BBN Domain, Cambridge, Mass.).

T1 sequence (P30518 whole entry): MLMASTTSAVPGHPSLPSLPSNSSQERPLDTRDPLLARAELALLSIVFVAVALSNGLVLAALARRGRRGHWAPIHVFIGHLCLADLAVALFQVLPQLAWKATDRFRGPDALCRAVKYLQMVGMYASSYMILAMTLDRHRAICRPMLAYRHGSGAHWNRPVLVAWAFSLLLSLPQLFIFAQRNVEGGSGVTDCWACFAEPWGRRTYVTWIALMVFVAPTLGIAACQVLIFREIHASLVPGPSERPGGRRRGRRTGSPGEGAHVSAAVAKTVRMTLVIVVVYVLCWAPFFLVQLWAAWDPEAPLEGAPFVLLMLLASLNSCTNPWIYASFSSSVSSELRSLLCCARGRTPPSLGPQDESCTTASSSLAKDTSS

CCOc1ccc2c(c1)C1(CCC(OCCN3CCOCC3=O)CC1)C(=O)N2S(=O)(=O)c1ccc(C(=O)NC(C)(C)C)cc1OC (stereo not shown)
IC50: ~7.3 nM
